Experimental data as given in patent US20170050957A1, “4-AMINO-6-(HETEROCYCLIC)PICOLINATES AND 6-AMINO-2-(HETEROCYCLIC)PYRIMIDINE-4-CARBOXYLATES AND THEIR USE AS HERBICIDES” (Dow AgroSciences LLC, priority 2013, published 2017).
Read-outs that look alike come from different tables or passages of the source.

Legend:
Type in all cases: in vivo
[1] = system: Key Grass and Sedge Weeds as well as Grass Crops; test: Post-emergent Test II herbicidal activity (Table 16); settings: post-emergence, 336 h, 14 d; for pest or weed control at 35 g/ha: 35 g ai/ha; for pest or weed control at 70 g/ha: 70 g ai/ha; for pest or weed control at 140 g/ha: 140 g ai/ha
How it was run: (§1)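 Plants at first-second true leaf stage, grown 7-21 d in greenhouse (~15 h photoperiod, 23-29 °C day), were track-sprayed at 187 L/ha with compound in acetone/DMSO/water/isopropanol/crop oil/Triton X-155 at a high rate plus 1/2× to 1/16× dilutions. Injury scored visually after 14 d versus untreated plants, 0 (none) to 100% (complete kill).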

[2] = system: Key Broadleaf Weed and Crop Species; test: Post-emergent Test II herbicidal activity (Table 15); settings: post-emergence, 336 h, 14 d; for pest or weed control at 35 g/ha: 35 g ai/ha; for pest or weed control at 70 g/ha: 70 g ai/ha; for pest or weed control at 140 g/ha: 140 g ai/ha
How it was run: as §1

[3] = system: barnyardgrass (Echinochloa crs-galli); test: Pre-emergent Test I herbicidal activity
Protocol: (§2) Pre-emergent Test I Seeds of test species were planted into round plastic pots (5-inch diameter) containing sandy loam soil. After planting, all pots were sub-irrigated 16 h prior to compound application. Compounds were dissolved in a 97:3 v/v (volume/volume) mixture of acetone and dimethyl sulfoxide (DMSO) and diluted to the appropriate concentration in a final application solution containing water, acetone, isopropanol, DMSO and Agri-dex (crop oil concentrate) in a 59:23:15:1.0:1.5 v/v ratio and 0.02% w/v (weight/volume) of Triton X-155 to obtain the spray solution containing the highest application rate. The high application rate was serial diluted with the above application solution to provide delivery of the compound at rates 1/2×, 1/4× and 1/8× of the highest rate (equivalent to 4.0, 2.0, 1.0, and 0.5 kg/ha, respectively). Formulated compound (2.7 mL) was applied pipetted evenly over the soil surface followed by incorporation with water (15 mL). Following treatment, pots were returned to the greenhouse for the duration of the experiment. The greenhouse was programmed for an approximate 15 h photoperiod which was maintained at about 23-29° C. during the day and 22-28° C. during the night. Nutrients and water were added on a regular basis through surface irrigation and supplemental lighting was provided with overhead metal halide 1000-Watt lamps as necessary. Herbicidal effect ratings were obtained 14 days after treatment. All evaluations were made relative to appropriate controls on a scale of 0 to 100 where 0 represents no herbicidal effect and 100 represents plant death or lack of emergence from the soil.

wild oats (Avena fatua) = test: Pre-emergent Test I herbicidal activity
Protocol: as §2

[4] = system: ivyleaf morningglory (Ipomoea hederecea); test: Pre-emergent Test I herbicidal activity
Protocol: as §2

[5] = system: sunflower (Helianthus annuus); test: Pre-emergent Test I herbicidal activity
Protocol: as §2

[6] = system: giant foxtail (Setaria faberi); test: Pre-emergent Test I herbicidal activity
Protocol: as §2

[7] = Cyperus esculentus, yellow nutsedge (Cyperus esculentus), read-out: Visual Growth Reduction (%) 14 Days After Application, CYPES
[8] = Echinochloa crus-galli, barnyardgrass (Echinochloa crus-galli), read-out: Visual Growth Reduction (%) 14 Days After Application, ECHCG
[9] = Oryza sativa, rice (Oryza sativa), read-out: Visual Growth Reduction (%) 14 Days After Application, ORYSA
[10] = Setaria faberi, giant foxtail (Setaria faberi), read-out: Visual Growth Reduction (%) 14 Days After Application, SETFA
[11] = Triticum aestivum, wheat, spring (Triticum aestivum), read-out: Visual Growth Reduction (%) 14 Days After Application, TRZAS
[12] = Zea mays, maize, corn (Zea mays), read-out: Visual Growth Reduction (%) 14 Days After Application, ZEAMX
[13] = Abutilon theophrasti, velvetleaf (Abutilon theophrasti), read-out: Visual Growth Reduction (%) 14 Days After Application, ABUTH
[14] = Amaranthus retroflexus, redroot pigweed (Amaranthus retroflexus), read-out: Visual Growth Reduction (%) 14 Days After Application, AMARE
[15] = Brassica napus, oilseed rape, canola (Brassica napus), read-out: Visual Growth Reduction (%) 14 Days After Application, BRSNN
[16] = Chenopodium album, lambsquarters (Chenopodium album), read-out: Visual Growth Reduction (%) 14 Days After Application, CHEAL
[17] = Euphorbia heterophylla, wild poinsettia (Euphorbia heterophylla), read-out: Visual Growth Reduction (%) 14 Days After Application, EPHHL
[18] = Helianthus annuus, sunflower (Helianthus annuus), read-out: Visual Growth Reduction (%) 14 Days After Application, HELAN

COC(=O)c1nc(-c2ccc3ccn(C)c3c2)c(F)c(N)c1Cl [Compound 1.10]
95 to 100%: pest or weed control at 140 g/ha [2, 14] | pest or weed control at 35 g/ha [2, 16] | pest or weed control at 70 g/ha [2, 16] | pest or weed control at 140 g/ha [2, 16]
G (0-29): Visual Growth Reduction (%) 14 Days After Application AVEFA (wild oats (Avena fatua); 3.96 Kg ai/ha) | Visual Growth Reduction (%) 14 Days After Application IPOHE ([4]; 3.96 Kg ai/ha) | Visual Growth Reduction (%) 14 Days After Application HELAN ([5]; 3.96 Kg ai/ha) | Visual Growth Reduction (%) 14 Days After Application, SETFA ([6]; 3.96 Kg ai/ha)
85 to 94%: pest or weed control at 70 g/ha [2, 14]
F (30-44): Visual Growth Reduction (%) 14 Days After Application, ECHCG ([3]; 3.96 Kg ai/ha)
0 to 29%: pest or weed control at 35 g/ha [1, 7] | pest or weed control at 70 g/ha [1, 7] | pest or weed control at 140 g/ha [1, 7] | pest or weed control at 35 g/ha [1, 8] | pest or weed control at 70 g/ha [1, 8] | pest or weed control at 140 g/ha [1, 8] | pest or weed control at 35 g/ha [1, 9] | pest or weed control at 70 g/ha [1, 9] | pest or weed control at 140 g/ha [1, 9] | pest or weed control at 35 g/ha [1, 10] | pest or weed control at 70 g/ha [1, 10] | pest or weed control at 140 g/ha [1, 10] | pest or weed control at 35 g/ha [1, 11] | pest or weed control at 70 g/ha [1, 11] | pest or weed control at 140 g/ha [1, 11] | pest or weed control at 35 g/ha [1, 12] | pest or weed control at 70 g/ha [1, 12] | pest or weed control at 140 g/ha [1, 12] | pest or weed control at 35 g/ha [2, 13] | pest or weed control at 70 g/ha [2, 13] | pest or weed control at 140 g/ha [2, 13] | pest or weed control at 35 g/ha [2, 14] | pest or weed control at 35 g/ha [2, 15] | pest or weed control at 70 g/ha [2, 15] | pest or weed control at 140 g/ha [2, 15] | pest or weed control at 35 g/ha [2, 17] | pest or weed control at 70 g/ha [2, 17] | pest or weed control at 140 g/ha [2, 17] | pest or weed control at 35 g/ha [2, 18] | pest or weed control at 70 g/ha [2, 18]
45 to 59%: pest or weed control at 140 g/ha [2, 18]

Nc1c(F)c(-c2cccc3cc[nH]c23)nc(C(=O)O)c1Cl [Compound 1.48]
75 to 84%: pest or weed control at 140 g/ha [2, 18]
0 to 29%: pest or weed control at 35 g/ha [1, 7] | pest or weed control at 70 g/ha [1, 7] | pest or weed control at 140 g/ha [1, 7] | pest or weed control at 35 g/ha [1, 8] | pest or weed control at 70 g/ha [1, 8] | pest or weed control at 140 g/ha [1, 8] | pest or weed control at 35 g/ha [1, 9] | pest or weed control at 70 g/ha [1, 9] | pest or weed control at 140 g/ha [1, 9] | pest or weed control at 35 g/ha [1, 10] | pest or weed control at 70 g/ha [1, 10] | pest or weed control at 140 g/ha [1, 10] | pest or weed control at 35 g/ha [1, 11] | pest or weed control at 70 g/ha [1, 11] | pest or weed control at 140 g/ha [1, 11] | pest or weed control at 35 g/ha [1, 12] | pest or weed control at 70 g/ha [1, 12] | pest or weed control at 140 g/ha [1, 12] | pest or weed control at 140 g/ha [2, 13] | pest or weed control at 140 g/ha [2, 14] | pest or weed control at 140 g/ha [2, 15] | pest or weed control at 140 g/ha [2, 17]
D (60-74): Visual Growth Reduction (%) 14 Days After Application IPOHE ([4]; 4 Kg ai/ha)
C (75-84): Visual Growth Reduction (%) 14 Days After Application HELAN ([5]; 4 Kg ai/ha)
60 to 74%: pest or weed control at 140 g/ha [2, 16]
G (0-29): Visual Growth Reduction (%) 14 Days After Application, ECHCG ([3]; 4 Kg ai/ha) | Visual Growth Reduction (%) 14 Days After Application AVEFA (wild oats (Avena fatua); 4 Kg ai/ha) | Visual Growth Reduction (%) 14 Days After Application, SETFA ([6]; 4 Kg ai/ha)
